Measured values reported in the kinase profiling compilation of Christmann-Franck et al. (2016).

Columns and labels:
Test in all cases: KINOMEscan competition binding
Settings in all cases: compound 0.5 µM
PIK3CB (human) = PIK3CB (human) (UniProt P42338)
SIK2 (human) = SIK2 (human) (UniProt Q9H0K1)
ULK2 (human) = ULK2 (human) (UniProt Q8IYT8)
MAP3K3 (human) = MAP3K3 (human) (UniProt Q99759)
PIP5K1A (human) = PIP5K1A (human) (UniProt Q99755)
PKN1 (human) = PKN1 (human) (UniProt Q16512)
NLK (human) = NLK (human) (UniProt Q9UBE8)
Chain of NLK (human) (Q9UBE8 whole entry, looked up): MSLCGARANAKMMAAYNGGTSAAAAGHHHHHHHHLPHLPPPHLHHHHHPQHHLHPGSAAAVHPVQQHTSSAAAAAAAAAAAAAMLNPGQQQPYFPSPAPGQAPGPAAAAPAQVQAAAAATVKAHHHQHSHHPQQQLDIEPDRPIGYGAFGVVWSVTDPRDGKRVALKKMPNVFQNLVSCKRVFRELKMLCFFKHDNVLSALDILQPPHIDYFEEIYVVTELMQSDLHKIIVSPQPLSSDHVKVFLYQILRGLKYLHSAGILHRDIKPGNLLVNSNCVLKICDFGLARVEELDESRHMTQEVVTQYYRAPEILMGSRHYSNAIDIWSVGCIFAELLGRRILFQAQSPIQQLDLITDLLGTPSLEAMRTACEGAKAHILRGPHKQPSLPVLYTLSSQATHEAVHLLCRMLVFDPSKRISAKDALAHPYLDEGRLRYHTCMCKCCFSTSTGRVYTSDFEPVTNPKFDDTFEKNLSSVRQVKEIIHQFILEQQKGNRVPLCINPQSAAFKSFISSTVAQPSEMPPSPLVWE

MAK (human) = MAK (human) (UniProt P20794)
PIM2 (human) = PIM2 (human) (UniProt Q9P1W9)
DSTYK (human) = DSTYK (human) (UniProt Q6XUX3)
RET (human) = RET (human) (UniProt P07949)
RAF1 (human) = RAF1 (human) (UniProt P04049)
AKT1 (human) = AKT1 (human) (UniProt P31749)
Chain of AKT1 (human) (P31749 whole entry, looked up): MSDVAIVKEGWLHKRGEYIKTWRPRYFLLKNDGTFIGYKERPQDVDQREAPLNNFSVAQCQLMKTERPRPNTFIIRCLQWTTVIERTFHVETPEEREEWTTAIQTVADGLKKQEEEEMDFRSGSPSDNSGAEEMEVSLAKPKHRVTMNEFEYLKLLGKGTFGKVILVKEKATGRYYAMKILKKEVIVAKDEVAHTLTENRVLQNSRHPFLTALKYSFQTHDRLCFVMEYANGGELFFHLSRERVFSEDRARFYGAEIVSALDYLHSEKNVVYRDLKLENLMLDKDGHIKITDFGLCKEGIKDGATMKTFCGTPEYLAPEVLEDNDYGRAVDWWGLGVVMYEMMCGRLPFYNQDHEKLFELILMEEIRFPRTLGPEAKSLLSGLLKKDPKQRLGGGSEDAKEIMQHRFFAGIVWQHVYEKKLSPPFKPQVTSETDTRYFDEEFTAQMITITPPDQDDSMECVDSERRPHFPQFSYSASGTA

RPS6KA4 KD2 (human) = RPS6KA4 KD2 (human) (UniProt O75676)
HUNK (human) = HUNK (human) (UniProt P57058)
MYLK4 (human) = MYLK4 (human) (UniProt Q86YV6)
CAMK1D (human) = CAMK1D (human) (UniProt Q8IU85)
ALK (human) = ALK (human) (UniProt Q9UM73)
Chain of ALK (human) (Q9UM73 whole entry, looked up): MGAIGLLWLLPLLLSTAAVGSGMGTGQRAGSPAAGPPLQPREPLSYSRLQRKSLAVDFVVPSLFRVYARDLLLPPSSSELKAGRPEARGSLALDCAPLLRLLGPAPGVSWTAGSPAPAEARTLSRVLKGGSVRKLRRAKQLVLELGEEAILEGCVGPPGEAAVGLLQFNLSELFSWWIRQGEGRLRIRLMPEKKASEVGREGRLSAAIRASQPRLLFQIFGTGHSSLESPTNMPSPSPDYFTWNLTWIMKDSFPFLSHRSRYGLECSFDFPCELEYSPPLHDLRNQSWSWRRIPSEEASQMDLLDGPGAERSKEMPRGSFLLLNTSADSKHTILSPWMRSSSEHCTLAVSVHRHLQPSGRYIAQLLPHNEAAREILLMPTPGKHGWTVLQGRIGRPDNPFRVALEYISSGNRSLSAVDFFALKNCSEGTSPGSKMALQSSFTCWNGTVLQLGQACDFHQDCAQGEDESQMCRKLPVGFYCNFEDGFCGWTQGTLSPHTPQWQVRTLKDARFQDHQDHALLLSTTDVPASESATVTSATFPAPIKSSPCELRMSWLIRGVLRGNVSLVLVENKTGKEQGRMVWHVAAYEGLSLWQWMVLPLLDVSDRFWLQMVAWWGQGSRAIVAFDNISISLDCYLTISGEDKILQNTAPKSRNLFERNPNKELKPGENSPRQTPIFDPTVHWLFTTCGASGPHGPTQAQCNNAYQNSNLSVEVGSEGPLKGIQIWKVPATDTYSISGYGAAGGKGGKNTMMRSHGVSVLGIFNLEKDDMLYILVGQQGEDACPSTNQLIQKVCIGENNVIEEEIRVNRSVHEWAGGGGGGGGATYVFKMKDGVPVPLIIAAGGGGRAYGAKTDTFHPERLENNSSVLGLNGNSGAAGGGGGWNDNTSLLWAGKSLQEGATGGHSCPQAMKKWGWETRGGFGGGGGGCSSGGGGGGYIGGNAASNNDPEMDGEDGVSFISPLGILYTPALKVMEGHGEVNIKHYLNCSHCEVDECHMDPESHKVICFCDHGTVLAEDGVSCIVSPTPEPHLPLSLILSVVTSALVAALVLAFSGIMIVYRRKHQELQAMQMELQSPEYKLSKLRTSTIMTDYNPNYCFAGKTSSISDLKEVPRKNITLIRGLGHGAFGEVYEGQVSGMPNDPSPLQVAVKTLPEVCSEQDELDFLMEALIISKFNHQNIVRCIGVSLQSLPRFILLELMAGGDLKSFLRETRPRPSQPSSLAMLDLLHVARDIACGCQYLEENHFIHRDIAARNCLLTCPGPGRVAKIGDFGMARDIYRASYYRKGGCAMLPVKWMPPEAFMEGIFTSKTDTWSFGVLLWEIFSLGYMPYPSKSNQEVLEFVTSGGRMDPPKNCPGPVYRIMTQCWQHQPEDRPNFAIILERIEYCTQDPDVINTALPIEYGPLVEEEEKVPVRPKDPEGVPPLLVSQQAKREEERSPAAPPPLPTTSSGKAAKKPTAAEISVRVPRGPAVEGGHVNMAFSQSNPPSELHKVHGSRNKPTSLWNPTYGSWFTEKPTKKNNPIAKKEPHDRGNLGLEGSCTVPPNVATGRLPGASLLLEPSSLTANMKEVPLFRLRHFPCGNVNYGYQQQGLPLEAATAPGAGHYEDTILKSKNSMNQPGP

SLK (human) = SLK (human) (UniProt Q9H2G2)
PLK2 (human) = PLK2 (human) (UniProt Q9NYY3)
BMPR1B (human) = BMPR1B (human) (UniProt O00238)
ERBB2 (human) = ERBB2 (human) (UniProt P04626)
NEK7 (human) = NEK7 (human) (UniProt Q8TDX7)
[1] = test system: KIT (human), P10721 [V559D/V654A]
CDK9 (human) = CDK9 (human) (UniProt P50750)
Chain of CDK9 (human) (P50750 whole entry, looked up): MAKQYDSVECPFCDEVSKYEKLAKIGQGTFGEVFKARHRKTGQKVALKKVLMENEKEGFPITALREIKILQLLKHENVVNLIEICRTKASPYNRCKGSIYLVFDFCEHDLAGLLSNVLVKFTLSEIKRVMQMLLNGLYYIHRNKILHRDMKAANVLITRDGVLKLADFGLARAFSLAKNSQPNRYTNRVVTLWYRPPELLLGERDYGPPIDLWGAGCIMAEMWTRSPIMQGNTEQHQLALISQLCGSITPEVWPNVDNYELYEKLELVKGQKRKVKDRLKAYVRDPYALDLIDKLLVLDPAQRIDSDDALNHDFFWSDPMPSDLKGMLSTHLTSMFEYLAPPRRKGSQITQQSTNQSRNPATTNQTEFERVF

AKT3 (human) = AKT3 (human) (UniProt Q9Y243)
BMPR1A (human) = BMPR1A (human) (UniProt P36894)
RPS6KA6 KD2 (human) = RPS6KA6 KD2 (human) (UniProt Q9UK32)
MAPK14 (human) = MAPK14 (human) (UniProt Q16539)
SGK110 (human) = SGK110 (human) (UniProt P0C264)
NEK11 (human) = NEK11 (human) (UniProt Q8NG66)
CDK8 (human) = CDK8 (human) (UniProt P49336)
IRAK1 (human) = IRAK1 (human) (UniProt P51617)
CAMKK1 (human) = CAMKK1 (human) (UniProt Q8N5S9)
Chain of CAMKK1 (human) (Q8N5S9 whole entry, looked up): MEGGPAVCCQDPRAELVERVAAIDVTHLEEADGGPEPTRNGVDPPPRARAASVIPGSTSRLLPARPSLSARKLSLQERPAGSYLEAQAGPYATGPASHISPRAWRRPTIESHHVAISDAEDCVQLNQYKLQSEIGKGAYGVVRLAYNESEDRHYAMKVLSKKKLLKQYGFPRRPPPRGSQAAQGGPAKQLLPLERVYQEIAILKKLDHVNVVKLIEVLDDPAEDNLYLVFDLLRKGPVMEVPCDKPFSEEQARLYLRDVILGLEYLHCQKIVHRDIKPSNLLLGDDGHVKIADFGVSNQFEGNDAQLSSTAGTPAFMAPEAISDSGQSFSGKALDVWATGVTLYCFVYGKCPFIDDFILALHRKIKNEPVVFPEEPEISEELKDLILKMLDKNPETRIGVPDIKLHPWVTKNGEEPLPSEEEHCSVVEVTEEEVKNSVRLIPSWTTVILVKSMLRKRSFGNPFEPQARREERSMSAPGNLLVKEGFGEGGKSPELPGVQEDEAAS

STK17B (human) = STK17B (human) (UniProt O94768)
Chain of STK17B (human) (O94768 whole entry, looked up): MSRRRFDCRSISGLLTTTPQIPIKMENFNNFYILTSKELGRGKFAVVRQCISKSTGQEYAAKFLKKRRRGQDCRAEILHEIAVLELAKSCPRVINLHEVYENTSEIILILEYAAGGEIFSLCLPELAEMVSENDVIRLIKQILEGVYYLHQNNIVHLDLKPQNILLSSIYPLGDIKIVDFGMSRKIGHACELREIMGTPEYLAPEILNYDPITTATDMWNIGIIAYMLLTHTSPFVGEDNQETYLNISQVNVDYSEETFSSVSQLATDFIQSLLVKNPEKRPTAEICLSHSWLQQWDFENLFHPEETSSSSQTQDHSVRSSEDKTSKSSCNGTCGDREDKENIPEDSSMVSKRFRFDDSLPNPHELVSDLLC

IGF1R (human) = IGF1R (human) (UniProt P08069)
PKN3 (M.tuberculosis) = PKN3 (M.tuberculosis) (UniProt Q6P5Z2)
MELK (human) = MELK (human) (UniProt Q14680)
PIK3C2G (human) = PIK3C2G (human) (UniProt O75747)
MYO3B (human) = MYO3B (human) (UniProt Q8WXR4)
CSNK1A1L (human) = CSNK1A1L (human) (UniProt Q8N752)
PIK3CD (human) = PIK3CD (human) (UniProt O00329)

Chain of ULK2 (human) (Q8IYT8 whole entry, looked up): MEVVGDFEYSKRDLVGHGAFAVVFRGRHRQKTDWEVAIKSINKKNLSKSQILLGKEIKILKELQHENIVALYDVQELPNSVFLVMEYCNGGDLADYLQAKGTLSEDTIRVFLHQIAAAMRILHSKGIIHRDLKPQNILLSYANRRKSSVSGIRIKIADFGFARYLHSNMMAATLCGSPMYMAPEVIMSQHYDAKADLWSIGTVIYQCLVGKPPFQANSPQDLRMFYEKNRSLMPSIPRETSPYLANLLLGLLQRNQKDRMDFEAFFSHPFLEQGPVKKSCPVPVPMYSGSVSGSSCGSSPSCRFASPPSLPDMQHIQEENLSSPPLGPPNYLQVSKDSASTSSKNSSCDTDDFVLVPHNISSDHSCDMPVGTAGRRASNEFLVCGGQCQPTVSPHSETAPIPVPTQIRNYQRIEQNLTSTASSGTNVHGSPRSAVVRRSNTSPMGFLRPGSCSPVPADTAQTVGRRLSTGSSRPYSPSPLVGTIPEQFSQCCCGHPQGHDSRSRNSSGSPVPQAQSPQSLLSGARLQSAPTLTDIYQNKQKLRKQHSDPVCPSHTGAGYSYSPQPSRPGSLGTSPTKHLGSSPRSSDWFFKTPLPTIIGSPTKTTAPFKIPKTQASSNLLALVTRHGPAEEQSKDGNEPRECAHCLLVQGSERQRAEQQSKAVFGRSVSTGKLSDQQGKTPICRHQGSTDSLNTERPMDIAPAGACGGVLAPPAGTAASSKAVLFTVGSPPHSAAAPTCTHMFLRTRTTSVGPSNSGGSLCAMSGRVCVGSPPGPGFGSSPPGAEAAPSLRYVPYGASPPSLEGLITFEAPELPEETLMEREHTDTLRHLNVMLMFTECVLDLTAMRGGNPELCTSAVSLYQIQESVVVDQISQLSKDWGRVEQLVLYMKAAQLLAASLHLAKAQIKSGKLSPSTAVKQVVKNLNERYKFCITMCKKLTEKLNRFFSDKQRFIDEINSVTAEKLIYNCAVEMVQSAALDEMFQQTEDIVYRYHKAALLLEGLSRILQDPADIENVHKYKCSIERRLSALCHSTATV

Cn1c2ccccc2c2c3c(c4c5ccccc5n(CCC#N)c4c21)CNC3=O
kinase still bound, per cent of control (PIK3CB (human)): 88% | kinase still bound, per cent of control (SIK2 (human)): 36% | kinase still bound, per cent of control (ULK2 (human)): 86% | kinase still bound, per cent of control (MAP3K3 (human)): 2.1% | kinase still bound, per cent of control (PIP5K1A (human)): 1.6% | kinase still bound, per cent of control (PKN1 (human)): 9.4% | kinase still bound, per cent of control (NLK (human)): 100% | kinase still bound, per cent of control (MAK (human)): 100% | kinase still bound, per cent of control (PIM2 (human)): 100% | kinase still bound, per cent of control (DSTYK (human)): 2% | kinase still bound, per cent of control (RET (human)): 0.6% | kinase still bound, per cent of control (RAF1 (human)): 100% | kinase still bound, per cent of control (AKT1 (human)): 100% | kinase still bound, per cent of control (RPS6KA4 KD2 (human)): 100% | kinase still bound, per cent of control (HUNK (human)): 87% | kinase still bound, per cent of control (MYLK4 (human)): 17% | kinase still bound, per cent of control (CAMK1D (human)): 93% | kinase still bound, per cent of control (ALK (human)): 2.1% | kinase still bound, per cent of control (SLK (human)): 69% | kinase still bound, per cent of control (PLK2 (human)): 100% | kinase still bound, per cent of control (BMPR1B (human)): 56% | kinase still bound, per cent of control (ERBB2 (human)): 87% | kinase still bound, per cent of control (NEK7 (human)): 100% | kinase still bound, per cent of control [1]: 100% | kinase still bound, per cent of control (CDK9 (human)): 100% | kinase still bound, per cent of control (AKT3 (human)): 100% | kinase still bound, per cent of control (BMPR1A (human)): 73% | kinase still bound, per cent of control (RPS6KA6 KD2 (human)): 100% | kinase still bound, per cent of control (MAPK14 (human)): 95% | kinase still bound, per cent of control (SGK110 (human)): 13% | kinase still bound, per cent of control (NEK11 (human)): 100% | kinase still bound, per cent of control (CDK8 (human)): 85% | kinase still bound, per cent of control (IRAK1 (human)): 14% | kinase still bound, per cent of control (CAMKK1 (human)): 6.1% | kinase still bound, per cent of control (STK17B (human)): 100% | kinase still bound, per cent of control (IGF1R (human)): 85% | kinase still bound, per cent of control (PKN3 (M.tuberculosis)): 100% | kinase still bound, per cent of control (MELK (human)): 22% | kinase still bound, per cent of control (PIK3C2G (human)): 70% | kinase still bound, per cent of control (MYO3B (human)): 100% | kinase still bound, per cent of control (CSNK1A1L (human)): 100% | kinase still bound, per cent of control (PIK3CD (human)): 45%
